US5980913A, “Peptides having immunomodulatory activity” (Biochem Pharma, Inc., priority 1994, dated 1999)
Where a SMILES comes first, the peptide text is derived from it. [ ]: non-standard residue; d: D form.

Tests used:
T and B cells in spleen = assay: In vivo/ex vivo mitogenic proliferation of T and B cells (spleen); set-up: species or system C57BL/6 mice; settings: FIGS. 1A-1D
Procedure: (§1) C57BL.backslash.6 mice are treated with 0, 50, 100, 200, and 300 mg/kg of drug (in saline) for 4 consecutive days. Blood is taken by cardiac puncture on day 5, and the lymphocytes are isolated from spleen in the following manner:
(§2) The spleen is aseptically removed and mashed by pressing against a steel strainer with a rubber plunger. The cell suspension is separated from the clumps by letting them settle at the bottom of the tube. The cell suspension is then separated on a Lymphocyte M layer and the interface is recovered and resuspended in media.
2. Mitogenic proliferation of T and B cells (spleen)

NK cells = assay: Functional in vivo/ex vivo NK cell assay, spleen cells, effector:target ratio 100:1; set-up: species or system mice; settings: for NK cell assay, % response of CTL: CTL = control
Procedure: as §1, §2
Important in immunosurveillance, NK cells are capable of lysing tumors, virus-infected or embryo-derived cells in vitro spontaneously without prior sensitization. Immunomodulators are evaluated using murine splenocytes and human peripheral blood mononuclear leukocytes.
Spleen cells were used to test for NK activity at a effector:target ratio of 100:1.

T cells = assay: Activation of T cells by mitogenic proliferation (ConA, PHA); type: cell-based, C57BL/6 mice; settings: concentration not given; 0 not defined
Excerpt: (§3) c) Activation of T or B cells by Mitogenic Proliferation
(§4) A mitogenic lectin (mitogen) is a glycoprotein which binds and cross-links specific cells surface carbohydrate determinants, and will polyclonally stimulate lymphoid cells. Lymphocyte activation by either antigens or mitogens results in intracellular changes and the subsequent development into a lymphoblast. Mitogenic stimulation of lymphocytes in vitro is believed to mimic the series of events which occur in vivo following their stimulation by specific antigens. PHA and ConA; PWM and LPS mitogens can be used as a measurement of T cell and B cell activity, respectively. Briefly, the spleen mononuclear leukocytes from C57BL/6 mice are incubated in the presence or absence of mitogens with or without candidate drugs. After 72 hours or 5 days, ^3 H-thymidine incorporation is recorded as an indication of cell proliferation.
(§5) Lymphocytes were isolated from mice spleen or human blood in accordance to methods well known in the art. 100 μl of cell suspension of 2×10^6 cells/ml was added per well (2x10^5 cells/well) and incubated in the presence of lectin at the following concentrations:
PHA=0.01% to 0.001% final concentration
(§6) Cells were incubated for 3 days with PHA or ConA, or 5 days with PWM or LPS. 1 μCi of tritiated thymidine was added to each well for the last 6 hours (or 0.5 μCi for 18 hrs). The cells were harvested in a cell Harvester (Tortech®) and counted in a Beta counter.

B cells = assay: Activation of B cells by mitogenic proliferation (LPS, PWM); type: cell-based, C57BL/6 mice
Excerpt: as §3, §4, §5
PWM=0.2 to 0.02% final concentration
as §6

[1] = Stability in Human Whole Blood at 37° C., HPLC; type: in vitro ADME; set-up: half-life: dose or concentration left out as unconfirmed; settings: for HPLC AREA: human whole blood 37° C.; for half-life: human, human whole blood, 37° C.
Procedure: The procedures are the same as example 5 with the exceptions that human whole blood was substituted for rat whole blood, and that in Step 2, (blood incubation) aliquotes were taken at the following times: […]

[2] = system: C57BL/6 lymphocytes with irradiated DBA/2 cells; assay: Mixed lymphocyte reaction (MLR), 3H thymidine uptake; type: cell-based, mice
Excerpt: 1. Cytotoxic T Lymphocytes (CTL) Mixed Lymphocyte Reaction (MLR) and Mitogenic Response Assays
The protocols used are described in Hudson L., Haay F., Pratical immunology, 3rd edition, Blackwell, Scientific publications, Oxford 1989, p. 158-162, and p.447.
Lymphocytes were isolated from C57BL/6 mice and DBA/2 mice in accordance to techniques well known in the art. Cell concentration was adjusted to 10×10^6 cell/ml for each assay. The cells isolated from DBA/2 mice were irradiated with 3000 Rads.
In a 6 well plate, each well was set up with:
The cells were incubated for five days at 37° C. in 5% CO2, after which CTL and MLR assays were performed.
b) Mixed Lymphocyte Reaction (MLR)
Mixed lymphocyte reaction is an in vitro counterpart of the allograft rejection. Briefly, lymphocyte activation (mitotic response) is obtained when cells from two inbred strains or from two outbred individuals of any species are mixed in in vitro culture. To have a unidirectional response, the proliferation of either cell type may be blocked with X-ray irradiation or mitomycin C treatment. After 4 days incubation, ^3 H thymidine uptake and cytotoxicity assays (CTL) were performed. The cells were then resuspended and 100 μl of cell suspension was deposited in each well of a 96 well plate. 1 μCi of tritiated thymidine was added for 6 hours. After incubation, the cells were then harvested and counted using a Microbeta counter.

[3] = Stability in Rat Whole Blood at 37° C., HPLC; type: in vitro ADME; set-up: half-life: dose or concentration left out as unconfirmed; settings: for HPLC AREA: rat whole blood 37° C.
Procedure: Eluent: A=CH3 CN B=Ammonium Acetate 0.01 M pH 6
Stock solution of the peptide is prepared at a concentration of 1.lmg/ml and dissolved in 10% CH3 CN/H2 O.
Rat Whole Blood (EDTA) is spiked with the peptide to give a concentration of […].
Same concentration of 10% CH3 CN/H2 O is also spiked to Rat Whole Blood (EDTA) as a control blank.
Aliquotes of […] are taken (in duplicate) of both spiked and control blanks at the following times:
FOR BLANK BLOOD: 0', 90'.
Each aliquoted samples are centrifuged at 4° C., 4400 rpm for 10 minutes.
3. Extraction Procedure: Liquid--Liquid Extraction
For each plasma sample, 100 μl of plasma are transferred to an eppendorf vial and 200 μl of acetonitrile added to it. The mixture is vortexed for 30 seconds and centrifuged at 4° C., 5 minutes 14000 rpm (Centra MP4R centrifuge, rotor # IEC 851). 200 μl of supernatant are transferred to another vial and evaporated to dryness with the Speed vac Plus (Savant SC-110A). The dried sample is reconstituted with […] of Mobile phase and an aliquote of this is injected to HPLC(high pressure liquid chromatography) for analysis.

[4] = concentration not given, 0 not defined

SMILES: NCCCC[C@H](N)C(=O)N[C@@H](CC(N)=O)C(=O)N1CCC[C@H]1C(=O)N[C@@H](Cc1ccc(O)cc1)C(=O)O [PEPTIDE #1, H-Lys-Asn-Pro-Tyr-OH] (H-KNPY-OH)
- activation of T and B cells in spleen in vivo/ex vivo (in words) (T and B cells in spleen): activate T and B cells
- NK cell assay, % response of IL-2 (NK cells; 50 mg/kg): 48.34%
- NK cell assay, Average (NK cells; 50 mg/kg): 2.52
- NK cell assay, % response of CTL (NK cells; 50 mg/kg): 112.48%
- NK cell assay, % response of IL-2 (NK cells; 100 mg/kg): 69.48%
- NK cell assay, Average (NK cells; 100 mg/kg): 3.63
- NK cell assay, % response of CTL (NK cells; 100 mg/kg): 161.66%
- NK cell assay, % response of IL-2 (NK cells; 200 mg/kg): 53.13%
- NK cell assay, Average (NK cells; 200 mg/kg): 2.77
- NK cell assay, % response of CTL (NK cells; 200 mg/kg): 123.63%
- NK cell assay, % response of IL-2 (NK cells; 300 mg/kg): 58.49%
- NK cell assay, Average (NK cells; 300 mg/kg): 3.05
- NK cell assay, % response of CTL (NK cells; 300 mg/kg): 136.11%
- Activation of T Cells, ConA (T cells): 0
- Activation of T Cells, PHA (T cells): 0
- Activation of B Cells, PWM (B cells; 10^-6 - 10^-4 M): 1.7 - 4 ×
- Activation of B Cells, LPS (B cells; 10^-10 - 10^-4 M): 1.9 - 3.6 ×
- stimulation of B cells in vitro (in words) (B cells; summary of Table 1): stimulates CTL's and B cells
- HPLC AREA ([1]; 0 min): 887657
- HPLC AREA ([1]; 15 min): 354842
- HPLC AREA ([1]; 30 min): 127725
- HPLC AREA ([1]; 45 min): 0
- half-life [1]: ~20 min
- MLR [2, 4]: 0

SMILES: NCCCC[C@@H](N)C(=O)N[C@@H](CC(N)=O)C(=O)N1CCC[C@H]1C(=O)N[C@@H](Cc1ccc(O)cc1)C(=O)O [PEPTIDE #5, H-(D-Lys)-Asn-Pro-Tyr-OH] (H-[dK]NPY-OH)
- HPLC AREA ([3]; 0 min): 2471958
- HPLC AREA ([3]; 5 min): 2362251.2
- HPLC AREA ([3]; 10 min): 2386700
- HPLC AREA ([3]; 15 min): 2965610
- HPLC AREA ([3]; 30 min): 2038700.5
- HPLC AREA ([3]; 45 min): 2186985.5
- HPLC AREA ([3]; 60 min): 2194185.5
- HPLC AREA ([3]; 75 min): 2559208.5
- HPLC AREA ([3]; 90 min): 2263081.5
- half-life ([3]; rat, rat whole blood (EDTA), 37° C.): > 90 min
- Activation of T Cells, ConA (T cells): 0
- Activation of T Cells, PHA (T cells): 0
- Activation of B Cells, LPS (B cells; [4]): 0
- Activation of B Cells, PWM (B cells; [4]): 0
- HPLC AREA ([1]; 0 min): 2857082.5
- HPLC AREA ([1]; 15 min): 3066465
- HPLC AREA ([1]; 30 min): 3017509.5
- HPLC AREA ([1]; 60 min): 3135696.5
- HPLC AREA ([1]; 90 min): 3005211
- HPLC AREA ([1]; 120 min): 3476665.5
- HPLC AREA ([1]; 150 min): 3063052
- HPLC AREA ([1]; 180 min): 3108157
- HPLC AREA ([1]; 210 min): 3181899
- half-life [1]: > 210 min
- MLR ([2]; 10^-7 M): 2.1 ×
